Results published in PubChem BioAssay (NCI).
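Briefly, cells in 96-well plates were exposed to five compound concentrations for 48 h, and endpoints were estimated by linear interpolation. GI50 = concentration required for 50% inhibition of growth. TGI is the concentration that stops growth completely.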

Experiments:
Assay in all cases: NCI anticancer screen, dose series, 48 h; in the data active = GI50 below about 0.43 µM; inactive = the rest
786-0 renal = system: 786-0 renal
A498 renal = system: A498 renal
A549 NSCLC = system: A549 NSCLC
ACHN renal = system: ACHN renal
BT-549 breast = system: BT-549 breast
CAKI-1 renal = system: CAKI-1 renal
CCRF-CEM leukemia = system: CCRF-CEM leukemia
COLO 205 colon = system: COLO 205 colon
DU-145 prostate = system: DU-145 prostate
EKVX NSCLC = system: EKVX NSCLC
HCC-2998 colon = system: HCC-2998 colon
HCT-116 colon = system: HCT-116 colon
HCT-15 colon = system: HCT-15 colon
HL-60(TB) leukemia = system: HL-60(TB) leukemia
HOP-62 NSCLC = system: HOP-62 NSCLC
HOP-92 NSCLC = system: HOP-92 NSCLC
HS 578T breast = system: HS 578T breast
HT29 colon = system: HT29 colon
IGROV1 ovarian = system: IGROV1 ovarian
K-562 leukemia = system: K-562 leukemia
KM12 colon = system: KM12 colon
LOX IMVI melanoma = system: LOX IMVI melanoma
M14 melanoma = system: M14 melanoma
MALME-3M melanoma = system: MALME-3M melanoma
MCF7 breast = system: MCF7 breast
MDA-MB-231 breast = system: MDA-MB-231 breast
MDA-MB-435 = system: MDA-MB-435
MOLT-4 leukemia = system: MOLT-4 leukemia
NCI-H226 lung = system: NCI-H226 lung
NCI-H23 lung = system: NCI-H23 lung
NCI-H460 lung = system: NCI-H460 lung
NCI-H522 lung = system: NCI-H522 lung
NCI/ADR-RES ovarian = system: NCI/ADR-RES ovarian
OVCAR-3 ovarian = system: OVCAR-3 ovarian
OVCAR-4 ovarian = system: OVCAR-4 ovarian
OVCAR-5 ovarian = system: OVCAR-5 ovarian
OVCAR-8 ovarian = system: OVCAR-8 ovarian
PC-3 prostate = system: PC-3 prostate
RPMI-8226 leukemia = system: RPMI-8226 leukemia
RXF 393 renal = system: RXF 393 renal
SF-268 CNS = system: SF-268 CNS
SF-295 CNS = system: SF-295 CNS
SF-539 CNS = system: SF-539 CNS
SK-MEL-2 melanoma = system: SK-MEL-2 melanoma
SK-MEL-28 melanoma = system: SK-MEL-28 melanoma
SK-MEL-5 melanoma = system: SK-MEL-5 melanoma
SK-OV-3 ovarian = system: SK-OV-3 ovarian
SN12C renal = system: SN12C renal
SNB-19 CNS = system: SNB-19 CNS
SNB-75 CNS = system: SNB-75 CNS
SR leukemia = system: SR leukemia
SW-620 colon = system: SW-620 colon
T-47D breast = system: T-47D breast
TK-10 renal = system: TK-10 renal
U251 CNS = system: U251 CNS
UACC-62 melanoma = system: UACC-62 melanoma
UO-31 renal = system: UO-31 renal
UACC-257 melanoma = system: UACC-257 melanoma

Cc1ccc(Cl)cc1-c1nc(N)nc(Nc2ccc(Br)cc2)n1
> 56.5 µM: TGI (DU-145 prostate)
> 29 µM: TGI (SF-539 CNS)
inactive: GI50 (CAKI-1 renal) 19.2 µM | GI50 (EKVX NSCLC) 0.667 µM | GI50 (HOP-92 NSCLC) 2.28 µM | GI50 (NCI-H226 lung) 1.74 µM | GI50 (T-47D breast) 22.6 µM | GI50 (TK-10 renal) 3.29 µM
3.99 µM: TGI (RXF 393 renal)
8.72 µM: TGI (U251 CNS)
> 100 µM: TGI (786-0 renal) | TGI (A549 NSCLC) | TGI (ACHN renal) | TGI (CAKI-1 renal) | TGI (EKVX NSCLC) | TGI (HCT-116 colon) | TGI (HCT-15 colon) | TGI (HOP-62 NSCLC) | TGI (HOP-92 NSCLC) | TGI (IGROV1 ovarian) | TGI (K-562 leukemia) | TGI (KM12 colon) | TGI (LOX IMVI melanoma) | TGI (M14 melanoma) | TGI (MALME-3M melanoma) | TGI (MCF7 breast) | TGI (MDA-MB-231 breast) | TGI (OVCAR-4 ovarian) | TGI (OVCAR-5 ovarian) | TGI (OVCAR-8 ovarian) | TGI (PC-3 prostate) | TGI (RPMI-8226 leukemia) | TGI (SF-268 CNS) | TGI (SF-295 CNS) | TGI (SK-MEL-2 melanoma) | TGI (SK-MEL-28 melanoma) | TGI (SK-MEL-5 melanoma) | TGI (SN12C renal) | TGI (SNB-19 CNS) | TGI (SNB-75 CNS) | TGI (SR leukemia) | TGI (SW-620 colon) | TGI (T-47D breast) | TGI (TK-10 renal) | TGI (UACC-62 melanoma) | TGI (UO-31 renal)
2.47 µM: TGI (A498 renal)
> 22.1 µM: TGI (MOLT-4 leukemia)
21 µM: TGI (SK-OV-3 ovarian)
> 38.7 µM: TGI (NCI-H460 lung)
0.254 µM: TGI (COLO 205 colon)
0.208 µM: TGI (NCI/ADR-RES ovarian)
active: GI50 (786-0 renal) 0.0596 µM | GI50 (A498 renal) 0.0326 µM | GI50 (A549 NSCLC) 0.0663 µM | GI50 (ACHN renal) 0.0911 µM | GI50 (BT-549 breast) 0.0581 µM | GI50 (CCRF-CEM leukemia) 0.0444 µM | GI50 (COLO 205 colon) 0.0454 µM | GI50 (DU-145 prostate) 0.069 µM | GI50 (HCC-2998 colon) 0.16 µM | GI50 (HCT-116 colon) 0.0435 µM | GI50 (HCT-15 colon) 0.0535 µM | GI50 (HL-60(TB) leukemia) 0.0305 µM | GI50 (HOP-62 NSCLC) 0.0723 µM | GI50 (HS 578T breast) 0.0455 µM | GI50 (HT29 colon) 0.0365 µM | GI50 (IGROV1 ovarian) 0.15 µM | GI50 (K-562 leukemia) 0.0422 µM | GI50 (KM12 colon) 0.0503 µM | GI50 (LOX IMVI melanoma) 0.0687 µM | GI50 (M14 melanoma) 0.0414 µM | GI50 (MALME-3M melanoma) 0.0703 µM | GI50 (MCF7 breast) 0.0456 µM | GI50 (MDA-MB-231 breast) 0.139 µM | GI50 (MDA-MB-435) 0.0222 µM | GI50 (MOLT-4 leukemia) 0.0883 µM | GI50 (NCI-H23 lung) 0.0739 µM | GI50 (NCI-H460 lung) 0.0385 µM | GI50 (NCI-H522 lung) 0.0332 µM | GI50 (NCI/ADR-RES ovarian) 0.0347 µM | GI50 (OVCAR-3 ovarian) 0.0317 µM | GI50 (OVCAR-4 ovarian) 0.274 µM | GI50 (OVCAR-5 ovarian) 0.358 µM | GI50 (OVCAR-8 ovarian) 0.0745 µM | GI50 (PC-3 prostate) 0.0538 µM | GI50 (RPMI-8226 leukemia) 0.0851 µM | GI50 (RXF 393 renal) 0.0309 µM | GI50 (SF-295 CNS) 0.041 µM | GI50 (SF-539 CNS) 0.0406 µM | GI50 (SK-MEL-2 melanoma) 0.0692 µM | GI50 (SK-MEL-28 melanoma) 0.126 µM | GI50 (SK-MEL-5 melanoma) 0.0411 µM | GI50 (SK-OV-3 ovarian) 0.0517 µM | GI50 (SN12C renal) 0.0628 µM | GI50 (SNB-19 CNS) 0.0832 µM | GI50 (SNB-75 CNS) 0.029 µM | GI50 (SR leukemia) 0.0361 µM | GI50 (SW-620 colon) 0.0408 µM | GI50 (U251 CNS) 0.0461 µM | GI50 (UACC-62 melanoma) 0.0594 µM | GI50 (UO-31 renal) 0.0733 µM
> 48.5 µM: TGI (HS 578T breast)
0.0598 µM: TGI (MDA-MB-435)

O=C(N/N=C/c1c(Cl)cccc1Cl)c1cccnc1Nc1cccc(C(F)(F)F)c1
active: GI50 (CCRF-CEM leukemia) 0.323 µM
10.8 µM: TGI (CCRF-CEM leukemia) | TGI (MALME-3M melanoma)
71 µM: TGI (T-47D breast)
26.2 µM: TGI (HS 578T breast)
28.5 µM: TGI (SR leukemia)
47 µM: TGI (OVCAR-5 ovarian)
27.5 µM: TGI (OVCAR-3 ovarian)
30.2 µM: TGI (SK-OV-3 ovarian)
79.2 µM: TGI (TK-10 renal)
48.3 µM: TGI (OVCAR-4 ovarian)
19.5 µM: TGI (SF-539 CNS)
14 µM: TGI (SF-295 CNS)
18.1 µM: TGI (HCT-116 colon)
55.5 µM: TGI (BT-549 breast)
56.1 µM: TGI (SK-MEL-2 melanoma)
11.6 µM: TGI (U251 CNS)
32.8 µM: TGI (A498 renal)
9.64 µM: TGI (UACC-62 melanoma)
37.9 µM: TGI (COLO 205 colon)
> 100 µM: TGI (A549 NSCLC) | TGI (DU-145 prostate) | TGI (HCC-2998 colon) | TGI (HCT-15 colon) | TGI (HT29 colon) | TGI (K-562 leukemia) | TGI (MCF7 breast) | TGI (MDA-MB-435) | TGI (MOLT-4 leukemia) | TGI (NCI-H23 lung) | TGI (OVCAR-8 ovarian) | TGI (PC-3 prostate) | TGI (SF-268 CNS) | TGI (SNB-19 CNS) | TGI (SW-620 colon) | TGI (UACC-257 melanoma) | TGI (UO-31 renal)
24.8 µM: TGI (SNB-75 CNS)
54.9 µM: TGI (IGROV1 ovarian)
25.5 µM: TGI (HOP-92 NSCLC)
35.3 µM: TGI (NCI-H460 lung)
40.4 µM: TGI (SK-MEL-28 melanoma)
4.88 µM: TGI (RPMI-8226 leukemia)
38.6 µM: TGI (RXF 393 renal)
21.9 µM: TGI (NCI-H226 lung)
34.1 µM: TGI (HL-60(TB) leukemia)
27.9 µM: TGI (786-0 renal)
20.8 µM: TGI (ACHN renal) | TGI (HOP-62 NSCLC)
15 µM: TGI (NCI-H522 lung)
19 µM: TGI (LOX IMVI melanoma)
72 µM: TGI (MDA-MB-231 breast)
27.4 µM: TGI (EKVX NSCLC)
98.9 µM: TGI (SN12C renal)
17.1 µM: TGI (M14 melanoma)
44.6 µM: TGI (NCI/ADR-RES ovarian)
6.52 µM: TGI (SK-MEL-5 melanoma)
57.3 µM: TGI (KM12 colon)
inactive: GI50 (786-0 renal) 3.87 µM | GI50 (A498 renal) 3.13 µM | GI50 (A549 NSCLC) 4.69 µM | GI50 (ACHN renal) 3.04 µM | GI50 (BT-549 breast) 3.28 µM | GI50 (COLO 205 colon) 2.9 µM | GI50 (DU-145 prostate) 5.35 µM | GI50 (EKVX NSCLC) 2.25 µM | GI50 (HCC-2998 colon) 3.86 µM | GI50 (HCT-116 colon) 1.53 µM | GI50 (HCT-15 colon) 0.668 µM | GI50 (HL-60(TB) leukemia) 3.15 µM | GI50 (HOP-62 NSCLC) 3.97 µM | GI50 (HOP-92 NSCLC) 4.01 µM | GI50 (HS 578T breast) 3.59 µM | GI50 (HT29 colon) 4.7 µM | GI50 (IGROV1 ovarian) 2.41 µM | GI50 (K-562 leukemia) 3.57 µM | GI50 (KM12 colon) 3.24 µM | GI50 (LOX IMVI melanoma) 1.83 µM | GI50 (M14 melanoma) 2.72 µM | GI50 (MALME-3M melanoma) 2.95 µM | GI50 (MCF7 breast) 3.92 µM | GI50 (MDA-MB-231 breast) 5.16 µM | GI50 (MDA-MB-435) 3.8 µM | GI50 (MOLT-4 leukemia) 0.942 µM | GI50 (NCI-H226 lung) 2.44 µM | GI50 (NCI-H23 lung) 6.35 µM | GI50 (NCI-H460 lung) 2.04 µM | GI50 (NCI-H522 lung) 2.55 µM | GI50 (NCI/ADR-RES ovarian) 1.7 µM | GI50 (OVCAR-3 ovarian) 2.72 µM | GI50 (OVCAR-4 ovarian) 0.941 µM | GI50 (OVCAR-5 ovarian) 4.43 µM | GI50 (OVCAR-8 ovarian) 3.49 µM | GI50 (PC-3 prostate) 2.79 µM | GI50 (RPMI-8226 leukemia) 0.717 µM | GI50 (RXF 393 renal) 6.53 µM | GI50 (SF-268 CNS) 2.18 µM | GI50 (SF-295 CNS) 1.78 µM | GI50 (SF-539 CNS) 4.28 µM | GI50 (SK-MEL-2 melanoma) 11.1 µM | GI50 (SK-MEL-28 melanoma) 3.03 µM | GI50 (SK-MEL-5 melanoma) 2.34 µM | GI50 (SK-OV-3 ovarian) 3.77 µM | GI50 (SN12C renal) 2.58 µM | GI50 (SNB-19 CNS) 4.62 µM | GI50 (SNB-75 CNS) 3.9 µM | GI50 (SR leukemia) 2.57 µM | GI50 (SW-620 colon) 1.66 µM | GI50 (T-47D breast) 2.65 µM | GI50 (TK-10 renal) 4.4 µM | GI50 (U251 CNS) 1.47 µM | GI50 (UACC-257 melanoma) 4.31 µM | GI50 (UACC-62 melanoma) 2.46 µM | GI50 (UO-31 renal) 3 µM
